Four compounds from ChEMBL document CHEMBL1201862, “PubChem BioAssay data set” (2004) can be followed below.

Some test systems named below: UACC-257; CAKI-1; MCF7; LOX IMVI; NCI-H226; SK-MEL-2; DU-145; MDA-MB-435; Hs-578T; OVCAR-4; 786-0; SF-295; A549; SNB-75; MDA-MB-231; BT-549; EKVX; HOP-62; ACHN; M14.
Holding throughout (test): NCI-60 cell line screen, 48 h

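Compound exposure: 48 hours, 5 concentrations, 96-well plates. GI50: concentration for 50% inhibition of growth.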 Activity calls are given as the source filed them. Cut-off read from the data, not from the text of the source: active = GI50 up to about 1.1 µM and inactive = higher.

As to `O=C1CCCc2cc3c(cc21)CC1(C3)Cc2cc3c(cc2C1)C(=O)CCC3`, the GI50 in the assay with UACC-257 is 2.28 µM (inactive); with CAKI-1, 1.91 µM (inactive); in the assay on MCF7, 0.484 µM (active); in the assay on LOX IMVI it was 1.48 µM (inactive); in the assay on NCI-H226, 2.7 µM (inactive); in the assay with SK-MEL-2 it was 1.57 µM (inactive). The GI50 in the assay on DU-145 was 2.18 µM (inactive); with MDA-MB-435, 0.231 µM (active); in the assay with Hs-578T it was 2.64 µM (inactive); in the assay on OVCAR-4, 4.43 µM (inactive); in the assay with 786-0, 2.58 µM (inactive); in the assay on SF-295, 0.923 µM (active). Further, the GI50 in the assay on A549 was 1.39 µM (inactive); in the assay with SNB-75, 2.2 µM (inactive); in the assay on MDA-MB-231, 3.16 µM (inactive); in the assay on BT-549, 0.653 µM (active); with EKVX, 5.48 µM (inactive); in the assay on HOP-62 it was 2.29 µM (inactive). Besides, the values for the GI50 in the assay with ACHN and in the assay with M14 were 2.86 µM (inactive) and 0.536 µM (active), respectively.

Take `Cc1ccc(C)n1-n1c(-c2ccccc2)n[nH]c1=O`: the GI50 with UACC-257, in the assay with CAKI-1, with MCF7, with LOX IMVI, in the assay with NCI-H226 and with SK-MEL-2 was > 100 µM (inactive) in each case. Further, the GI50 is > 100 µM (inactive) with DU-145; 21.2 µM (inactive) in the assay with MDA-MB-435; > 100 µM (inactive) in the assay with Hs-578T; > 100 µM (inactive) with OVCAR-4; > 100 µM (inactive) in the assay on 786-0; > 100 µM (inactive) in the assay with SF-295. Besides, the GI50 with A549, with SNB-75, in the assay with MDA-MB-231, in the assay on BT-549, in the assay with EKVX and with HOP-62 was > 100 µM (inactive) in each case. Moreover, the GI50 with ACHN and in the assay on M14 was > 100 µM (inactive) each time.

In the case of `COc1cc2oc3ccccc3c(=O)c2cc1CSc1ccccc1N`, the GI50 in the assay on UACC-257 is 47.5 µM (inactive); in the assay with CAKI-1, 35.9 µM (inactive); in the assay with MCF7, 13.6 µM (inactive); in the assay on LOX IMVI, 29.7 µM (inactive); with NCI-H226, 73.6 µM (inactive); in the assay with SK-MEL-2, 6.95 µM (inactive). In addition, the GI50 in the assay on DU-145 was 21.1 µM (inactive); with MDA-MB-435, 2.47 µM (inactive); in the assay on Hs-578T it was 36 µM (inactive); in the assay on OVCAR-4, 13.6 µM (inactive); in the assay on 786-0, 35.9 µM (inactive); with SF-295, 14.2 µM (inactive). In addition, the GI50 with A549 is 23.4 µM (inactive); in the assay with SNB-75, 30.8 µM (inactive); in the assay on MDA-MB-231 it was 27.7 µM (inactive); with BT-549, 29.3 µM (inactive); in the assay with EKVX, 24.1 µM (inactive); with HOP-62, 22.8 µM (inactive). The GI50 with ACHN is 19.5 µM (inactive); with M14, 23.2 µM (inactive).

Take `O=C1CC[N+]2=Cc3ccccc3O[B-]2(c2ccccc2)O1` (stereo not given): the GI50 in the assay on UACC-257, in the assay on CAKI-1, in the assay with MCF7, in the assay on LOX IMVI, in the assay with NCI-H226 and with SK-MEL-2 was > 100 µM (inactive) in each case. In addition, the GI50 with DU-145, in the assay with MDA-MB-435, in the assay with Hs-578T, in the assay with OVCAR-4, with 786-0 and in the assay with SF-295 was > 100 µM (inactive) throughout. The GI50 in the assay on A549 was > 100 µM (inactive); in the assay on SNB-75, 67.1 µM (inactive); in the assay with MDA-MB-231, > 100 µM (inactive); in the assay with BT-549, > 100 µM (inactive); in the assay on EKVX, > 100 µM (inactive); in the assay with HOP-62 it was > 100 µM (inactive). Besides, the GI50 in the assay with ACHN and in the assay with M14 was > 100 µM (inactive) each time.
